Experimental data taken from patent publication US7824680B2, “Methods for inhibiting angiogenesis” (The Regents of the University of California, priority 2001, dated 2010).

Test system: mice
Experiment: Murine bFGF matrigel plug angiogenesis, lectin-FITC fluorescence
Format: in vivo
Conditions: bFGF matrigel s.c. containing 25 μg/ml antibody or 1 mM peptide; 72 hours
Experimental: Angiogenesis was induced by subcutaneous injection of 400 μl of growth factor depleted matrigel supplemented 0.4 μg/ml bFGF and saline, 25 μg/ml function blocking anti-α4β1 antibodies or control antibodies. Alternatively, mice were injected with matrigel containing bFGF and 1 mM of the sequence EILDVPST (SEQ ID NO:52) or the control sequence EILEVPST (SEQ ID NO:53). After 72 hours, mice were injected with Bandiera Simplicifolia lectin-FITC conjugate. After 15 minutes, matrigel plugs were excised and homogenized. Fluorescence intensity within the lysed plug was determined and correlated with degree of angiogenesis as determined by standard immunohistochemical analyses.

EILDVPST [peptide antagonist of integrin α4β1]
growth factor-stimulated angiogenesis (fluorescence intensity within the lysed matrigel plug): selectively and specifically inhibited
